Measurements reported in BindingDB's records for doi:10.1016/j.bmcl.2003.11.033 (University of California, 2004).

Target: Tyrosinase (Agaricus bisporus)
Experiment: Inhibitory activity was evaluated against the oxidation of L-3,4-dihydroxyphenylalanine (L-DOPA) catalyzed by mushroom tyrosinase

IC50: 30 µM
Compound: COc1ccc(C=O)c(O)c1 [2-hydroxy-4-methoxybenzaldehyde]
